Test results taken from the supplement of paper PMC11616607.

What was measured:
Experiment in all cases: drug sensitivity score (DSS) from 5-point dose-response viability curve (DSS (area-under-curve based score)); higher = more sensitive (stronger growth inhibition or killing); extreme values may be limits of the assay
Conditions in all cases: exposure time: 72 h; concentration range: 5 concentrations over 10,000-fold range
CAOV3 = system: CAOV3
Outline: (§1)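 Viability of ovarian cancer and normal ovarian cell lines was read by CellTiter-Glo luminescence after 3 days at 37°C and 5% CO2 in 384-well plates holding 1,500 cells per well. Drugs had been dispensed in DMSO or water with an Echo 550 at five concentrations over a 10,000-fold range. Using Breeze software, a drug sensitivity score was assigned per cell line and drug, higher scores meaning more sensitive, and zero means no response.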

COV318 = system: COV318
Outline: as §1

COV362 = system: COV362
Outline: as §1

HOSE1C = system: HOSE1C
Outline: as §1

HOSE2C = system: HOSE2C
Outline: as §1

JHOS2 = system: JHOS2
Outline: as §1

Kuramochi = system: Kuramochi
Outline: as §1

OV90 = system: OV90
Outline: as §1

OVCAR4 = system: OVCAR4
Outline: as §1

OVCAR5 = system: OVCAR5
Outline: as §1

OVCAR8 = system: OVCAR8
Outline: as §1

Ovsaho = system: Ovsaho
Outline: as §1

| SMILES | drug sensitivity score (CAOV3) | drug sensitivity score (COV318) | drug sensitivity score (COV362) | drug sensitivity score (HOSE1C) | drug sensitivity score (HOSE2C) | drug sensitivity score (JHOS2) | drug sensitivity score (Kuramochi) | drug sensitivity score (OV90) | drug sensitivity score (OVCAR4) | drug sensitivity score (OVCAR5) | drug sensitivity score (OVCAR8) | drug sensitivity score (Ovsaho) |
| --- | --- | --- | --- | --- | --- | --- | --- | --- | --- | --- | --- | --- |
| COc1cc(Nc2ncc(F)c(Nc3ccc4c(n3)N(COP(=O)(O)O)C(=O)C(C)(C)O4)n2)cc(OC)c1OC [Fostamatinib] | 0 | 1.5 | 0.8 | 2 | 8.4 | 0.8 | 2.4 | 2.9 | 2.9 | 3.7 | 0.3 | 2.4 |
| C[C@]12CC[C@@H]3c4ccc(O)cc4C[C@@H](CCCCCCCCC[S+]([O-])CCCC(F)(F)C(F)(F)F)[C@H]3[C@@H]1CC[C@@H]2O (stereo not given in full) [Fulvestrant] | 0 | 0 | 0 | 0 | 0 | 0 | 0 | 0 | 0 | 0 | 0 | 0 |
| O=C(NOCCO)c1ccc2cncn2c1Nc1ccc(I)cc1F [GDC-0623] | 5 | 0 | 2.3 | 0 | 1.3 | 0.6 | 0.1 | 16.3 | 6.3 | 6.1 | 0.4 | 0.8 |
| C[C@H]1CN(C2COC2)CCN1c1ccc(Nc2cc(-c3ccnc(N4CCn5c(cc6c5CC(C)(C)C6)C4=O)c3CO)cn(C)c2=O)nc1 [GDC-0853] | 0 | 0 | 0 | 0 | 0 | 0 | 0 | 0 | 0 | 0 | 0 | 0 |
| O[C@H](C[C@H]1c2c(F)cccc2-c2cncn21)[C@H]1CC[C@H](O)CC1 [GDC-0919] | 0.1 | 3 | 0 | 0 | 0 | 0.4 | 0.1 | 0 | 0.8 | 0.6 | 0.7 | 0 |
| CNc1nc(Nc2cn(C(C)(C)C#N)nc2C)ncc1C(F)(F)F [GNE-0877] | 0 | 0 | 0 | 0 | 0 | 0 | 0 | 0 | 0 | 0 | 0 | 0 |
| CCNc1nc(Nc2cc(F)c(C(=O)N3CCOCC3)cc2OC)ncc1C(F)(F)F [GNE-7915] | 0 | 0 | 0 | 0 | 0 | 0 | 0 | 0 | 0 | 0 | 0 | 0 |
| CCCc1cc(C)[nH]c(=O)c1CNC(=O)c1cc(-c2ccnc(N3CCN(C)CC3)c2)cc2c1cnn2C(C)C [GSK343] | 0 | 0 | 0 | 0 | 0 | 0 | 0 | 0 | 0 | 0 | 0 | 0 |
| CCCOc1ccn2c(C(C)=O)cc(-c3ccccc3S(C)(=O)=O)c2c1 [GSK2801] | 0 | 0 | 0 | 0 | 0 | 0 | 0.4 | 0 | 0 | 0 | 0 | 0 |
| CCOC(=O)CCNc1cc(N2CCc3ccccc3CC2)nc(-c2ccccn2)n1 [GSK-J4] | 1.6 | 6.9 | 0 | 2.5 | 0.8 | 0 | 9 | 4.6 | 2.9 | 0.6 | 1.5 | 1.9 |
| C[C@@H]1C=C2C(=O)O[C@@H]3CC[C@H](C1)[C@]23O [Galiellalactone] | 6.1 | 3.8 | 2.9 | 8.1 | 7.3 | 5.6 | 0 | 7.1 | 6.5 | 7.6 | 3.6 | 4.6 |
| Cc1cccc(-c2nn3c(c2-c2ccnc4ccc(C(N)=O)cc24)CCC3)n1 [Galunisertib] | 0 | 0.3 | 1.8 | 0 | 0 | 0 | 0 | 0 | 0 | 0 | 0 | 0 |
| Cc1cc(Nc2cc(CN3CCOCC3)c3nc(C)c(Cc4ccc(Cl)cc4F)n3n2)n[nH]1 [Gandotinib] | 5.9 | 4.9 | 4.6 | 5.9 | 8.9 | 3.1 | 5.9 | 4.1 | 4 | 5.8 | 7.1 | 6.7 |
| CC(C)c1cc(-c2n[nH]c(=O)n2-c2ccc3c(ccn3C)c2)c(O)cc1O [Ganetespib] | 16.2 | 10.3 | 12.7 | 22.9 | 26.1 | 18 | 11.9 | 15.3 | 11.3 | 13.6 | 17 | 5 |
| CN(C)C1CCN(C(=O)c2ccc(NC(=O)Nc3ccc(-c4nc(N5CCOCC5)nc(N5CCOCC5)n4)cc3)cc2)CC1 [Gedatolisib] | 10 | 3.2 | 4.8 | 17.9 | 13.1 | 7.4 | 11.4 | 15.4 | 14.8 | 12.3 | 7.5 | 13.4 |
| COc1cc2ncnc(Nc3ccc(F)c(Cl)c3)c2cc1OCCCN1CCOCC1 [Gefitinib] | 7.2 | 0.5 | 0.3 | 0 | 0.3 | 1.6 | 1.8 | 4 | 1.9 | 5.6 | 3.3 | 3.8 |
| Nc1ccn([C@@H]2O[C@H](CO)[C@@H](O)C2(F)F)c(=O)n1 [Gemcitabine] | 23.6 | 3.5 | 8.1 | 8.2 | 6.7 | 12.7 | 0 | 13.5 | 0 | 15.5 | 23.6 | 3.3 |
| CCc1nc(C(N)=O)c(Nc2ccc(N3CCC(N4CCN(C)CC4)CC3)c(OC)c2)nc1NC1CCOCC1 [Gilteritinib] | 3.9 | 0.6 | 0.4 | 0 | 0 | 0 | 0.7 | 2.2 | 0.1 | 4.9 | 0.4 | 0 |
| CCN(CC)Cc1ccc2cc(COC(=O)Nc3ccc(C(=O)NO)cc3)ccc2c1 [Givinostat] | 7.3 | 4.2 | 2.2 | 12.3 | 8.6 | 5.3 | 6.2 | 7.7 | 4.1 | 10.8 | 10 | 3.2 |
| CN1CC[C@@H](NC(=O)Nc2ccc(C#N)cc2)C[C@@H]1c1nc2ccccc2[nH]1 [Glasdegib] | 0 | 0 | 0 | 0 | 0 | 0 | 0 | 0 | 0 | 0 | 0 | 0 |
| COCCNCc1ccc(-c2cc3nccc(Oc4ccc(NC(=S)NC(=O)Cc5ccc(F)cc5)cc4F)c3s2)nc1 [Glesatinib] | 0 | 0.1 | 1.6 | 2.9 | 1.9 | 0 | 0 | 0 | 0 | 1.2 | 0 | 0.2 |
| CN1CCN(C2CCN(C(=O)Nc3cc(Oc4ccc(NC(=O)C5(C(=O)Nc6ccc(F)cc6)CC5)c(F)c4)ccn3)CC2)CC1 [Golvatinib] | 0 | 0 | 0 | 0 | 0 | 0 | 0.8 | 1.4 | 0 | 0.1 | 0 | 0 |
| CC(C)C[C@H](NC(=O)[C@@H](COC(C)(C)C)NC(=O)[C@H](Cc1ccc(O)cc1)NC(=O)[C@H](CO)NC(=O)[C@H](Cc1c[nH]c2ccccc12)NC(=O)[C@H](Cc1cnc[nH]1)NC(=O)[C@@H]1CCC(=O)N1)C(=O)N[C@@H](CCCNC(=N)N)C(=O)N1CCC[C@H]1C(=O)NNC(N)=O [Goserelin] | 0 | 0 | 0 | 0 | 0 | 0 | 0 | 0 | 0 | 0 | 0 | 4.7 |
| O=S(=O)(c1cccc2c(O)nccc12)N1CCCNCC1 [Hydroxyfasudil] | 0 | 0.1 | 0 | 0 | 0 | 0.4 | 0 | 0 | 0 | 0 | 0 | 0 |
| NC(=O)NO [Hydroxyurea] | 1.1 | 1.7 | 0.1 | 8.2 | 8 | 3.3 | 0 | 2.8 | 0 | 2.9 | 5.1 | 2.3 |
| COc1cc2c(cc1-c1c(C)noc1C)ncc1[nH]c(=O)n([C@H](C)c3ccccn3)c12 [I-BET151] | 11.9 | 1.9 | 0.6 | 13.8 | 11.3 | 4.5 | 9.2 | 8.2 | 6.9 | 7.1 | 9.5 | 12 |
| O=C(O)c1ccc(O)c2ncccc12 [IOX-1] | 1.2 | 0 | 0 | 4.6 | 3.4 | 0 | 1.6 | 3.2 | 1.5 | 1 | 3 | 1.6 |
| O=C(O)CNC(=O)c1c(O)c2ccccc2n(Cc2ccccc2)c1=O [IOX-2] | 0 | 0 | 0 | 0.1 | 0 | 0 | 0 | 0 | 0 | 0 | 0 | 0 |
| C=CC(=O)N1CCC[C@@H](n2nc(-c3ccc(Oc4ccccc4)cc3)c3c(N)ncnc32)C1 [Ibrutinib] | 3 | 0 | 0.5 | 0 | 0 | 0 | 2.8 | 0 | 1.5 | 3.1 | 0 | 2.5 |
| C#Cc1cccc(Nc2ncnc3cc4c(cc23)OCCOCCOCCO4)c1 [Icotinib] | 5.7 | 0.2 | 0 | 0 | 0 | 0.4 | 0.2 | 0 | 1.7 | 4.3 | 0 | 1.1 |
